Reference: patent CN113979875A, “一种地佐辛衍生物晶型a及其制备方法和应用” (Yangtze River Pharmaceutical Group Co Ltd, priority 2020, dated 2022)

Tests used:
[1] = molecular target: δ opioid receptor (δ阿片类受体) (Homo sapiens, UniProt P41143); experiment: Radioligand competitive binding, δ opioid receptor (Example 12)
[2] = molecular target: κ opioid receptor (κ阿片类受体) (Homo sapiens, UniProt P41145); experiment: Radioligand competitive binding, κ opioid receptor (Example 12)
[3] = molecular target: μ opioid receptor (μ阿片类受体) (Homo sapiens, UniProt P35372); experiment: Radioligand competitive binding, μ opioid receptor (Example 12)
[4] = Grinding test, crystal form by XRPD (Example 7); type: physicochemical; details: agate mortar, thorough grinding for half an hour
[5] = Intermediate and long-term storage stability (Example 10); type: physicochemical; details: 12 months
[6] = Stress (influencing factor) stability test, crystal form by XRPD (Example 9); type: physicochemical
[7] = intermediate condition 30℃±2℃/65%±5%RH
[8] = long-term condition 25℃±2℃/60%±5%RH

Row | SMILES | IC50 [1] | IC50 [2] | IC50 [3] | crystal transformation on grinding [4] | chemical stability [5, 7] | crystal form stability [5, 7] | chemical stability [5, 8] | crystal form stability [5, 8] | crystal form ([6]; day 0 (initial)) | crystal form ([6]; high humidity, 5 days) | crystal form ([6]; high humidity, 10 days) | crystal form ([6]; high humidity, 30 days) | crystal form ([6]; high temperature and high humidity, 5 days) | crystal form ([6]; high temperature and high humidity, 10 days) | crystal form ([6]; high temperature and high humidity, 30 days) | crystal transformation (XRPD compared with initial data) ([6]; high temperature and high humidity, high humidity, and light (Figs. 9-17)) | crystal form ([6]; light, 5 days) | crystal form ([6]; light, 10 days) | crystal form ([6]; light, 30 days) | change in all quality indices ([6]; light, high temperature and high humidity, high humidity, packed in medicinal LDPE bag and polyester/aluminium/polyethylene composite film)
1 | C[C@@]12CCCCC[C@@H](Cc3ccc(O)cc31)[C@@H]2NCc1ccccc1.Cl [地佐辛衍生物晶型A, 盐酸盐] | < 10 nM | < 10 nM | < 10 nM |  |  |  |  |  |  |  |  |  |  |  |  |  |  |  |  | 
2 | C[C@@]12CCCCC[C@@H](Cc3ccc(O)cc31)[C@@H]2NCc1ccccc1.Cl [地佐辛衍生物晶型A] |  |  |  | 未转晶 | 很好的化学稳定性 | 很好的化学稳定性和晶型稳定性 | 很好的化学稳定性 | 很好的化学稳定性和晶型稳定性 | 晶型A | 晶型A | 晶型A | 晶型A | 晶型A | 晶型A | 晶型A | 没有发生转晶现象 | 晶型A | 晶型A | 晶型A | 各项指标无明显变化,均符合质量标准要求
